# Reference: patent publication US20130136827A1, “Method and Composition for Increasing The Proportion of Dietary Ingredients That Are Resistant To Degradation by Ruminal Microorganisms” (priority 2011, published 2013)
# Assays:
# [1] = test system: microorganisms within the rumen ecosystem; details: Montgomery et al., J Anim Sci. 86(3):640-50; cited from earlier work
# ruminal microbes = test: In situ ruminal incubation of samples in Dacron bags for 24 hours
# Text: The in situ procedure utilizes small in situ bags made of a nitrogen-free synthetic polyester fabric (Dacron®; Ankom Technology, Mecedon, N.Y.) that has a 50 μm pore size. The pores are sufficiently small such that when feed materials are placed into the bag the contents are retained. The pore size also is large enough to allow for entry of microorganisms into the bag when placed into the rumen, thus exposing the contents to the degradative actions of ruminal microbes. Disappearance of feed particles from the bag is presumed to be due to microbial fermentative activity whilst the bag and its contents are suspended within the rumen environment. In situ assays provide useful information regarding the susceptibility of feeds to microbial digestion within the rumen.
# The test procedure consisted of adding 12 g of sample (as is) to Dacron bags, which then were heat sealed and subsequently placed into the rumen and allowed to incubate for 24 hours. Bags then were removed from the rumen, dried and weighed to determine disappearance of dry matter. Concentrations of protein, total fatty acids, and fatty acid profile were determined for the residue from each sample. Samples were prepared in duplicate within each animal, along with blank bags for correction, and six animals were used. Three cattle were fed a high-concentrate diet and 3 were fed a high-forage, i.e., low concentrate diet.
# These values were used to calculate the extent of dry matter and nutrient disappearance during the in situ digestion procedure.
structure (smiles),measurement,setting,value
"CC/C=C\C/C=C\C/C=C\CCCCCCCC(=O)O [ALA, Alpha-linolenic acid]",dietary ALA available for absorption in the postruminal digestive tract,[1],less than 5%
"Cl.NCCCC[C@H](N)C(=O)O [Lysine, lysine hydrochloride]","ruminally degraded / disappearance of dry matter, over Low and High concentrate groups","ruminal microbes; 24-hour period of ruminal incubation, text summary of Table VII",≥ 99.83%
same,"In situ dry matter disappearance (%), Mean","ruminal microbes; 24 hours of ruminal incubation, average of Low and High concentrate groups",99.86%
same,"In situ dry matter disappearance (%), High Concentrate","ruminal microbes; 24 hours of ruminal incubation, cattle on high-concentrate diet",99.83%
same,"In situ dry matter disappearance (%), Low Concentrate","ruminal microbes; 24 hours of ruminal incubation, cattle on high-forage/low concentrate diet",99.88%
